Data set [1] can be described thus: Half life in CD1 mouse at 10 mg/kg, ip measured up to 7 hrs by LC-MS/MS analysis. The format is ADME, organism-based. The following applies: in vivo.
A short description of data set [2]: Tmax in CD1 mouse at 10 mg/kg, ip measured up to 7 hrs by LC-MS/MS analysis. The format is ADME, organism-based. To be noted: in vivo.
Data set [3] can be described thus: Cmax in brain of CD1 mouse at 10 mg/kg, ip measured up to 7 hrs by LC-MS/MS analysis. Further details: dose 10 mg/kg, route intraperitoneal. It is filed as ADME, organism-based.
Data set [4] in a line: Cmax in plasma of CD1 mouse at 10 mg/kg, ip measured up to 7 hrs by LC-MS/MS analysis. The format is ADME, organism-based. Further details: dose 10 mg/kg, route intraperitoneal.
A short description of data set [5]: AUC (0 to infinity) in CD1 mouse at 10 mg/kg, ip measured up to 7 hrs by LC-MS/MS analysis. The format is ADME, organism-based. On the set-up: dose 10 mg/kg, time infinity, route intraperitoneal. The following applies: in vivo.
The nature of data set [6]: AUC (0 to t) in CD1 mouse at 10 mg/kg, ip measured up to 7 hrs by LC-MS/MS analysis. The format is ADME, organism-based. On the set-up: time < 7 hr, dose 10 mg/kg, route intraperitoneal. To be noted: in vivo.
Data set [7] in a line: Aqueous solubility of compound in PBS buffer at 200 uM and pH 7.4 incubated for 24 hrs under shaking condition by chromatographic analysis. It is filed as physicochemical.
The nature of data set [8]: Half life in human pooled liver microsomes at 10 uM incubated in shaking water bath measured up to 60 mins in presence of NADPH by HPLC-MS/MS analysis. The format is ADME, Microsome.
Data set [9] can be described thus: Half life in CD mouse pooled liver microsomes at 10 uM incubated in shaking water bath measured up to 60 mins in presence of NADPH by HPLC-MS/MS analysis. It is filed as ADME, Microsome.

In brackets after ≈: the same amount, converted by molar mass.

Compound `O=C(NCC1CCOCC1)c1n[nH]c2ccc(-c3cncc(CO)c3)cc12` showed a half-life in data set [1] of 2 h. In addition, the time to peak (Tmax) in data set [2] worked out at 0.5 h. The Cmax in [3] amounted to 21.1 ng/g; in data set [4], 949 ng/mL. In addition, the AUC(0-inf) in data set [5] was 791 ng·h/mL. Moreover, the exposure AUC(0-t) at 7 h in data set [6] stood at 781 ng·h/mL. Besides, the concentration in solution in data set [7] (solubility at 24 h, 200 µM) was 200 µM (≈ 73.3 µg/mL). For the same compound, the half-life at 10 µM in [8] and in data set [9] was above 1 h each time.

(Values after ChEMBL document CHEMBL4613299, “Optimization of Indazole-Based GSK-3 Inhibitors with Mitigated hERG Issue and In Vivo Activity in a Mood Disorder Model” (ACS Med Chem Lett, 2020).)
